Laboratory results reported in patent US20250346943A1, “DEGRADER COMPOUNDS OF QSOX1 mRNA” (UNIVERSITY OF FLORIDA RESEARCH FOUNDATION, INCORPORATED, priority 2022, published 2025).

Columns and labels:
SQSTM1 mRNA = SQSTM1 mRNA abundance by RT-qPCR in MDA-MB-231 cells; type: cell-based, human; conditions: 48 h treatment
Method: Analysis of mRNA Abundance by RT-qPCR. Unless stated otherwise, all RT-qPCR experiments were performed to measure nascent RNA levels by using Click-it Nascent RNA Capture Kit (Cat #C10365, Thermo Fisher) per the manufacturer's protocols. Briefly, cells were treated with 0.2 mM of ethynyl uridine (EU) in growth medium for 16 h, after which the medium was replaced with fresh growth medium lacking EU. Compound or ASO treatment was performed at the same time of initial EU treatment, and compounds were replenished after replacing the medium to remove EU. Total RNA was extracted by using a Zymo Quick-RNA Miniprep Kit as per manufacturer's protocol with DNase treatment. The click reaction and pull-down of nascent RNA were performed as described in “In Vitro Chemical-Crosslinking and Isolation by Pull-down (Chem-CLIP) with Fluorescently Labeled RNA”. Reverse transcription (RT) was performed by using 300 ng total RNA and a QScript cDNA synthesis kit (QuantaBio) per manufacturer's protocols qPCR was performed in 384-well plates by using Power SYBR Green Master Mix (Life Technologies) on a QuantStudioS™ Cycler (Applied Biosystems) using the “Comparative Ct with Melt” method.

MDA-MB-231 cells = assay: Invasion assay; type: cell-based, human; conditions: 10 μM, 48 h
Method: Invasion Assay. MDA-MB-231 cells were seeded in […] and treated with compound or transfected by ASO for 48 h as described in Cell Culture. After treatment for 48 h, the medium was replaced with fresh medium that contains same concentration of compound but lacking FBS for 8 h (serum starvation). ThinCert (GBO) 24-well inserts with 8 μm pores were coated with 100 μL of 0.5 mg/mL Matrigel (Fisher Scientific: CB40234) per well, and then cells were added into the insert (50,000 cells per well). Fresh growth medium with FBS was added to a 24-well plate (600 μL each well), and the inserts containing cells were placed on the top, allowing medium to cover the bottom of the insert. After 16 h, all medium was removed, and cells were washed by 1×DPBS twice. Cells were then fixed with 3% (w/v) paraformaldehyde (PFA) in 1×DPBS at room temperature for 30 min, followed by staining with Crystal Violet (10 mg/mL; 4:1H2O:MeOH) at room temperature for 20 min. A cotton swab was used to gently remove non-invasive cells on sitting on top of the Matrigel. The inserts were then imaged under a regular optical microscope (3 views per well), and the number of invasive cells were counted manually.

[1] = system: base paired (BP) mutant RNA lacking the U-bulge; assay: In vitro Chem-CLIP with Cy5-labeled mutant RNA; type: binding; conditions: U-bulge mutated to A/U base pair
Method: In Vitro Chemical-Crosslinking and Isolation by Pull-down (Chem-CLIP) with Fluorescently Labeled RNA. Cy5-labeled RNA (100 μL, 2 μM) was folded by heating at 95° C. for 2 min in 1× Folding Buffer and cooled on ice. The RNA was then mixed with F1 at the indicated concentrations. The sample was irradiated with UV light (365 nm) for 15 min and then added to 100 μL of azide-disulfide agarose beads (Click Chemistry Tools, 1238-2) pre-washed with 200 μL of 25 mM HEPES, pH 7.0. A click reaction solution was prepared by mixing 30 μL of 250 mM sodium ascorbate, 30 μL of 10 mM CuSO4, and 30 μL of 50 mM THPTA, which was added to the sample. The sample was incubated while rotating at 37° C. for 2 h, briefly centrifuged, and then the supernatant was decanted. The beads were washed six times with 1× Washing Buffer (10 mM Tris-HCl, pH 7, 4 M NaCl, 1 mM EDTA, and 0.05% (v/v) Tween-20) following by incubation with 1× Releasing Buffer (50 mM TCEP and 100 mM K2CO3) at 37° C. for 30 min. An equivalent of iodoacetamide (200 mM) was added to the sample, which was incubated at 37° C. for an additional 30 min. The sample was briefly centrifuged and supernatant containing RNA was carefully transferred to a clean tube. Cy-5 fluorescence in the supernatant was measured with a Molecular Devices SpectraMax M5 plate reader with an excitation wavelength of 640 nm and an emission wavelength of 680 nm. […]

[2] = system: DNA and proteins in MDA-MB-231 cells; assay: Cross-linking to RNA, DNA and proteins in live cells with clickable TAMRA azide; type: cell-based, human; conditions: 16 h, TAMRA imaging
Method: Cross-linking to RNA, DNA, and Proteins in Live Cells with Clickable TAMRA Azide. MDA-MB-231 cells were seeded in 100 mm dishes and allowed to reach ˜80% confluency. The cells were then treated with […] of compound in growth medium and incubated for 16 h. Cells were washed with 1×DPBS and irradiated with UV light for 10 min. Total RNA was harvested using a Zymo Quick-RNA Miniprep Kit per the manufacturer's protocol with DNase and proteinase treatment. Total DNA was harvested using a Zymo Quick-DNA Miniprep Kit per the manufacturer's protocol with RNase and proteinase treatment. Total protein was harvested by using Mammalian Protein Extraction Reagent (M-PER, Thermo Scientific) per the manufacturer's protocol with RNase and DNase treatment. Each sample (4 μg for RNA or DNA, 25 μg for proteins) was then incubated in a “click reaction mixture” with TAMRA azide as described in In Vitro Screening of Functionalized Compounds with Clickable TAMRA Azide. DNA and RNA samples were separated by using a 1.0% (w/v) and 1.5% (w/v) agarose gel in TBE buffer, respectively. Protein samples were loaded to 10% SDS-polyacrylamide gel. All samples were first imaged with TAMRA channel by using a Typhoon FLA 9500 variable mode imager (GE Healthcare Life Sciences). […]

SMILES	effect on SQSTM1 mRNA levels (SQSTM1 mRNA)	reduction of the number of invasive MDA-MB-231 cells (MDA-MB-231 cells)	cross-linking / pull-down of mutant RNA [1]	enrichment of protein or DNA targets compared to the control probe [2]
CCOC(=O)C1=C(Nc2ccccc2)S/C(=C\c2ccc(OCCOCCOCCOCCNC(=O)CCC(=O)N(C)[C@H]3CC[C@@H](c4ccc(Cl)c(Cl)c4)c4ccccc43)c(O)c2)C1=O [Compound F1-RIBOTAC]	No significant effect	~40%		
C#CCCC1(CCC(=O)N(C)[C@H]2CC[C@@H](c3ccc(Cl)c(Cl)c3)c3ccccc32)N=N1 [Compound F1]			ablated	No significant enrichment
